{
  "source": "patent US7767649B2",
  "about": "“Amino acid conjugates providing for sustained systemic concentrations of GABA analogues” (XenoPort, Inc., priority 2002, dated 2010)",
  "tested_on": "PEPT2",
  "assay": "Electrogenic transport in Xenopus oocytes expressing PEPT2 (two-electrode electrophysiology)",
  "assay_type": "cell-based",
  "settings": "compound at 1 mM, normalized to saturating glycyl-sarcosine (1 mM)",
  "procedure": "Rat and human PEPT1 and PEPT2 expressing CHO cell lines were prepared as described in PCT Application WO01/20331. Gabapentin-containing dipeptides were evaluated for interaction with the peptide transporters using a radiolabeled substrate uptake assay in a competitive inhibition format, as described in PCT Application WO01/20331. Transport-induced currents were also measured in Xenopus oocytes transfected with rat and human PEPT1 and PEPT2.\nRat and human PEPT1 and PEPT2 transporter cDNAs were subcloned into a modified pGEM plasmid that contains 5′ and 3′ untranslated sequences from the Xenopus β-actin gene. These sequences increase RNA stability and protein expression. Plasmid cDNA was linearized and used as template for in vitro transcription (Epicentre Technologies transcription kit, 4:1 methylated:non-methylated GTP).\nXenopus laevis frogs were anesthetized by immersion in Tricaine ([…] in deionized water) for 15 min. Oocytes were removed and digested in frog ringer solution (90 mM NaCl, 2 mM KCl, 1 mM MgCl2, 10 mM NaHEPES, pH 7.45, no CaCl2) with 1 mg/mL collagenase (Worthington Type 3) for 80-100 min with shaking. […]\nTransport currents were measured 2-14 days after injection, using a standard two-electrode electrophysiology set-up (Geneclamp 500 amplifier, Digidata 1320/PCLAMP software and ADInstruments hardware and software were used for signal acquisition). […]",
  "data": [
    {"smiles": "C[C@H](NC(=O)[C@@H](N)CNC(=O)CC1(CN)CCCCC1)C(=O)O", "note": "[N-β-(Gabapentinyl)-L-Diaminopropionyl-L-Alanine]", "values": [
      {"measurement": "induced current as % of Imax", "result": 45, "unit": "%"}
    ]}
  ]
}
